Results taken from patent US20240294551A1 (AMGEN INC., priority 2022, published 2024).
Structures can show the parent of a compound that is named as a salt. Where two headings read alike, the source gives them in different places.

Columns and labels:
[1] = biological target: His-tagged KRAS G12D protein (Homo sapiens (Human), UniProt P01116, G12D); assay: KRAS G12D TR-FRET Assay; assay type: binding
Method in brief: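 Each incubation ran at room temperature: enzyme with compound for 30 minutes, peptide for one hour, and detection reagents (0.4 nM europium anti-6×His, 5 nM streptavidin-d2) for one hour more. Protein and peptide stocks were each diluted to 20 nM before addition.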

[2] = biological target: GDP-bound KRAS protein (aa 1-169), containing both G12D and C118A amino acid substitutions (Homo sapiens (Human), UniProt P01116, C118A/G12D); assay: KRAS G12D Coupled Nucleotide Exchange Assay; assay type: biochemical
[3] = read-out: KRAS G12D Binding IC50
[4] = read-out: KRAS G12D Coupled Exchange IC50
[5] = TR-FRET, read-out: KRAS G12D Binding
[6] = 2 hours compound pre-incubation, read-out: KRAS G12D Coupled Exchange

His-tagged KRAS G12D protein, sequence (P01116 other isoform, or with tags, fused parts or gaps G12D): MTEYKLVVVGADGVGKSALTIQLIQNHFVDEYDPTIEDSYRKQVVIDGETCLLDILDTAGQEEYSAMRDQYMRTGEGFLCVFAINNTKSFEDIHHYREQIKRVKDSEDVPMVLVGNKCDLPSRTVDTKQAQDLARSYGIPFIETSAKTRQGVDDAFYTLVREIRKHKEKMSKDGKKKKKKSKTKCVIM
GDP-bound KRAS protein (aa 1-169), containing both G12D and C118A amino acid substitutions, sequence (P01116 other isoform, or with tags, fused parts or gaps G12D/C118A): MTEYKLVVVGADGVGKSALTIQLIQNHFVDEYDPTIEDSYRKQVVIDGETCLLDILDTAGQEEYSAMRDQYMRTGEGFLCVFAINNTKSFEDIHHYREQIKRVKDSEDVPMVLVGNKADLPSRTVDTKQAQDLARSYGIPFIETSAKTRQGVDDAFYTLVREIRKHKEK

SMILES	IC50 [1, 3] [nM]	IC50 [2, 4] [nM]	IC50 [1, 5] [nM]	IC50 [2, 6] [nM]
Cc1cc2[nH]ncc2c2c1CCCCC(=O)OC1CC[C@@H]3CC[C@H]1N3c1nc(OC[C@@]34CCCN3C[C@H](F)C4)nc3c(F)c-2ncc13 (racemic) [Example 86]	61	57	–	–
Cc1c2ncc3c(nc(OC[C@]45CC[C@@H](CC4)C(=O)N5)nc13)N1CCC[C@](C)(C1)NC(=O)CCCc1c(F)ccc3cc(O)cc-2c13 [Example 25, (15R)-22-Fluoro-27-hydroxy-15,31-dimethyl-8-(((1s,4s)-3-oxo-2-azabicyclo[2.2.2]octan-1-yl)methoxy)-3,7,9,11,16-pentaazahexacyclo[19.7.1.1˜2,6˜.1˜11,15˜.0˜5,10˜.0˜25,29˜]hentriaconta-1(28),2(31),3,5,7,9,21,23,25(29),26-decaen-17-one]	10	7	–	–
Cc1cc2[nH]ncc2c2c1CCCOC(=O)O[C@@]1(C)COCCN(C1)c1nc(OC[C@@H]3CCCN3C)nc3c(F)c-2ncc13 [Example 182, (26R)-32-fluoro-18,26-dimethyl-4-(((2S)-1-methyl-2-pyrrolidinyl)methoxy)-23,25,28-trioxa-1,3,5,9,14,15-hexaazahexacyclo[24.4.1.1~6,10~.0~2,7~.0~11,19~.0~12,16~]dotriaconta-2,4,6,8,10(32),11,13,16,18-nonaen-24-one]	7570	3620	–	–
O=C1OC[C@H]2C[C@H]2c2c(Cl)cc3[nH]ncc3c2-c2ncc3c(nc(OC[C@@]45CCCN4C[C@H](F)C5)nc3c2F)N2CCC[C@H](C2)O1 [Example 46, (11R,13S,18R)-9-chloro-31-fluoro-25-(((2R,7aS)-2-fluorotetrahydro-1H-pyrrolo[1,2-a]pyrrol-7a(5H)-yl)methoxy)-15,17-dioxa-5,6,22,24,26,30-hexaazaheptacyclo[25.3.1.1˜18,22˜.0˜2,10˜.0˜3,7˜.0˜11,13˜.0˜23,28˜]dotriaconta-1(31),2,4,7,9,23,25,27,29-nonaen-16-one bis(2,2,2-trifluoroacetate)]	12	10	–	–
Fc1c2ncc3c(nc(OC[C@@]45CCCN4C[C@H](F)C5)nc13)N1CCO[C@@H](COCC[C@H]3C[C@H]3c3c(Cl)cc4[nH]ncc4c3-2)C1 [Example 393, (11R,13R,18R)-9-chloro-31-fluoro-25-(((2R,7aS)-2-fluorotetrahydro-1H-pyrrolo[1,2-a]pyrrol-7a(5H)-yl)methoxy)-16,19-dioxa-5,6,22,24,26,30-hexaazaheptacyclo[25.3.1.1~18,22~.0~2,10~.0~3,7~.0~11,13~.0~23,28~]dotriaconta-1(31),2,4,7,9,23,25,27,29-nonaene]	–	–	1810	1170
O=C1OCCCc2c(Cl)cc3[nH]ncc3c2-c2ncc3c(nc(O[C@H]4CCOC4)nc3c2F)N2CCOC[C@H](C2)O1 [Example 196, (26S)-18-chloro-32-fluoro-4-((3S)-tetrahydro-3-furanyloxy)-23,25,28-trioxa-1,3,5,9,14,15-hexaazahexacyclo[24.4.1.1~6,10~.0~2,7~.0~11,19~.0~12,16~]dotriaconta-2,4,6,8,10(32),11,13,16,18-nonaen-24-one]	167	214	–	–
Fc1ccc2cccc3c2c1CCOCC[C@@H]1CCCN(C1)c1nc(OC[C@@]24CCCN2C[C@H](F)C4)nc2c(F)c-3ncc12 [Example 223]	642	343	–	–
Cc1cc2[nH]ncc2c2c1CC/C=C/CO[C@@H]1CCCN(C1)c1nc(OC[C@@]34CCCN3C[C@H](F)C4)nc3c(F)c-2ncc13 [Example 134]	56	59	–	–

The next lines start with the values.

IC50 [1, 3] [nM]	IC50 [2, 4] [nM]	IC50 [1, 5] [nM]	IC50 [2, 6] [nM]	SMILES
50000	16400	–	–	Cc1cc2[nH]ncc2c2c1CCCOC(=O)N[C@@]1(C)CCCCN(C1)c1nc(OC[C@@]34CCCN3C[C@H](F)C4)nc3c(F)c-2ncc13 [Example 293, (26S)-32-fluoro-4-(((2R,7aS)-2-fluorotetrahydro-1H-pyrrolo[1,2-a]pyrrol-7a(5H)-yl)methoxy)-18,26-dimethyl-23-oxa-1,3,5,9,14,15,25-heptaazahexacyclo[24.4.1.1~6,10~.0~2,7~.0~11,19~.0~12,16~]dotriaconta-2,4,6(32),7,9,11,13,16,18-nonaen-24-one]
695	450	–	–	CN(C)CC1(COc2nc3c4cc(F)c(c(F)c4n2)-c2c(c(Cl)cc4[nH]ncc24)CCCOC(=O)O[C@@H]2COCCN3C2)CC1 [Example 306, m-(26S)-18-chloro-4-((1-((dimethylamino)methyl)cyclopropyl)methoxy)-9,32-difluoro-23,25,28-trioxa-1,3,5,14,15-pentaazahexacyclo[24.4.1.1~6,10~.0~2,7~.0~11,19~.0~12,16~]dotriaconta-2,4,6,8,10(32),11,13,16,18-nonaen-24-one]
1510	689	–	–	CN1CCC[C@H]1COc1nc2c3cnc(c(F)c3n1)-c1c(c(Cl)cc3[nH]ncc13)CCCOC(=O)O[C@@]1(C)COCCN2C1 [Example 180, (26R)-18-chloro-32-fluoro-26-methyl-4-(((2S)-1-methyl-2-pyrrolidinyl)methoxy)-23,25,28-trioxa-1,3,5,9,14,15-hexaazahexacyclo[24.4.1.1~6,10~.0~2,7~.0~11,19~.0~12,16~]dotriaconta-2,4,6,8,10(32),11,13,16,18-nonaen-24-one]
508	422	–	–	C[C@@]12CCCN(C1)c1nc(OC[C@@]34CCCN3C[C@H](F)C4)nc3c(F)c(ncc13)-c1cccc3cccc(c13)CCCOC(=O)O2 [Example 121]
1770	1030	–	–	O=C1N[C@@H]2CN(C[C@@H]3C[C@@H]32)c2nc(OC[C@@]34CCCN3C[C@H](F)C4)nc3c(F)c(ncc23)-c2c(c(Cl)cc3[nH]ncc23)CCC[C@H]1F [Example 172, (23R,26S,27S,29R)-18-chloro-23,32-difluoro-4-(((2R,7aS)-2-fluorotetrahydro-1H-pyrrolo[1,2-a]pyrrol-7a(5H)-yl)methoxy)-1,3,5,9,14,15,25-heptaazaheptacyclo[24.4.1.1~6,10~.0~2,7~.0~11,19~.0~12,16~.0~27,29~]dotriaconta-2,4,6,8,10(32),11,13,16,18-nonaen-24-one]
77	9	–	–	O[C@H]1c2ncc(o2)CCc2c(Cl)cc3[nH]ncc3c2-c2ncc3c(nc(OC[C@@]45CCCN4C[C@H](F)C5)nc3c2F)N2CCC[C@@H]1C2 [Example 234]
3260	2420	–	–	Fc1c2ncc3c(nc(OC[C@@]45CCCN4C[C@H](F)C5)nc13)N1CCO[C@]3(C1)C[C@H](C3)OCCCCc1c(Cl)cc3[nH]ncc3c1-2 (single isomer, unassigned) [Example 262]
–	–	5	2	O[C@H]1C[C@@H]2CN(C1)c1nc(OC[C@@]34CCCN3C[C@H](F)C4)nc3c(F)c(ncc13)-c1c(c(Cl)cc3[nH]ncc13)CCCc1nc2no1 (mixture of isomers) [Example 377]
68	48	–	–	C[C@@]12CCCN(C1)c1nc(OC[C@@]34CCCN3C[C@H](F)C4)nc3c(F)c(ncc13)-c1cc(O)cc3c1[C@H](CCCC(=O)N2)CCC3 [Example 28, (15R,21S)-31-fluoro-8-(((2R,7aS)-2-fluorotetrahydro-1H-pyrrolo[1,2-a]pyrrol-7a(5H)-yl)methoxy)-27-hydroxy-15-methyl-3,7,9,11,16-pentaazahexacyclo[19.7.1.1˜2,6˜.1˜11,15˜.0˜5,10˜.0˜25,29˜]hentriaconta-1(29),2(31),3,5,7,9,25,27-octaen-17-one 2,2,2-trifluoroacetate salt]
19300	5900	–	–	CN1C(=O)COCC[C@H]2CCc3cc4[nH]ncc4c(c32)-c2ncc3c(nc(OC[C@@]45CCCN4C[C@H](F)C5)nc3c2F)N2CCC[C@@H]1C2 [Example 278, (15R,22R)-34-fluoro-8-(((2R,7aS)-2-fluorotetrahydro-1H-pyrrolo[1,2-a]pyrrol-7a(5H)-yl)methoxy)-16-methyl-19-oxa-3,7,9,11,16,28,29-heptaazaheptacyclo[20.9.1.1~2,6~.1~11,15~.0~5,10~.0~25,32~.0~27,31~]tetratriaconta-1(31),2(34),3,5,7,9,25(32),26,29-nonaen-17-one]
3240	2110	–	–	CN(C)CC1(COc2nc3c4cnc(c(F)c4n2)-c2c(c(Cl)cc4[nH]ncc24)CCCOC(=O)O[C@@]2(C)COCCN3C2)CC1 [Example 332, (26R)-18-chloro-4-((1-((dimethylamino)methyl)cyclopropyl)methoxy)-32-fluoro-26-methyl-23,25,28-trioxa-1,3,5,9,14,15-hexaazahexacyclo[24.4.1.1~6,10~.0~2,7~.0~11,19~.0~12,16~]dotriaconta-2,4,6,8,10(32),11,13,16,18-nonaen-24-one]
262	178	–	–	Fc1c2ncc3c(nc(OC[C@@]45CCCN4C[C@H](F)C5)nc13)N1CCC[C@H](C1)Oc1nccc(n1)CCc1c(Cl)cc3[nH]ncc3c1-2 [Example 257, (19R)-9-chloro-32-fluoro-26-(((2R,7aS)-2-fluorotetrahydro-1H-pyrrolo[1,2-a]pyrrol-7a(5H)-yl)methoxy)-18-oxa-5,6,16,23,25,27,31,34-octaazaheptacyclo[26.3.1.1~13,17~.1~19,23~.0~2,10~.0~3,7~.0~24,29~]tetratriaconta-1(32),2,4,7,9,13(34),14,16,24,26,28,30-dodecaene]
8070	5980	–	–	Fc1c2ncc3c(nc(OC[C@@]45CCCN4C[C@H](F)C5)nc13)N1CCOC[C@@H](C1)c1cnn(n1)CCCc1c(Cl)cc3[nH]ncc3c1-2 [Example 297, (1S)-10-chloro-33-fluoro-24-(((2R,7aS)-2-fluorotetrahydro-1H-pyrrolo[1,2-a]pyrrol-7a(5H)-yl)methoxy)-30-oxa-4,5,13,14,19,23,25,27,34-nonaazaheptacyclo[25.4.1.1~2,5~.1~18,22~.0~9,17~.0~12,16~.0~21,26~]tetratriaconta-2(34),3,9,11,14,16,18(33),19,21,23,25-undecaene]
